Test results reported in PubChem BioAssay (NCI).
Where “and” joins values, the source holds several entries; their conditions need not be identical. Equal entries are not always repeated.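 Each compound was tested at five concentrations against cells in 96-well plates for 48 hours. The concentration for 50% growth inhibition is given as GI50. The concentration for full growth arrest is given as TGI.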

Assays:
Assay in all cases: DTP human tumour cell line panel, 48 h
A498 renal = test system: A498 renal
MOLT-4 leukemia = test system: MOLT-4 leukemia
A549 NSCLC = test system: A549 NSCLC
MALME-3M melanoma = test system: MALME-3M melanoma
NCI-H522 lung = test system: NCI-H522 lung
UACC-257 melanoma = test system: UACC-257 melanoma
CAKI-1 renal = test system: CAKI-1 renal
OVCAR-8 ovarian = test system: OVCAR-8 ovarian
786-0 renal = test system: 786-0 renal

Row | Structure (SMILES) | TGI (A498 renal) | TGI (MOLT-4 leukemia) [µM] | TGI (A549 NSCLC) [µM] | TGI (MALME-3M melanoma) [µM] | TGI (NCI-H522 lung) | TGI (UACC-257 melanoma) | TGI (CAKI-1 renal) [µM] | TGI (OVCAR-8 ovarian) [µM] | TGI (786-0 renal) | GI50 (A498 renal) [µM] | GI50 (MOLT-4 leukemia) [µM] | GI50 (A549 NSCLC) [µM] | GI50 (NCI-H522 lung) [µM] | GI50 (CAKI-1 renal) [µM] | GI50 (786-0 renal) [µM]
1 | Cl/C(N=Nc1ccccc1)=N/Nc1ccccc1 | > 100 µM | > 100 | > 100 | > 100 | > 100 µM | > 100 µM | > 100 | > 100 | > 100 µM |  |  |  |  |  | 
2 | COC(=O)C1C(=O)CC2CCCCC21 (configuration not stated) | > 100 µM | > 100 | > 100 | > 100 | > 100 µM | > 100 µM | > 100 |  | > 100 µM |  |  |  |  |  | 
3 | Cc1cc(NC(=O)C2C3C=CC(O3)C2C(=O)O)no1 (configuration not stated) | > 100 µM | > 100 | > 100 | > 100 | > 100 µM | 64 µM |  | 32.6 | 34.9 µM |  |  |  |  |  | 
4 | CC1(C)C2CCC3(OCCO3)C1C(O)C2 (configuration not stated) | > 100 µM | > 100 | > 100 | > 100 | > 100 µM | > 100 µM | > 100 | > 100 | > 100 µM |  |  |  |  |  | 
5 | CN(C)/C=N\c1ccnc(=O)[nH]1 | > 100 µM |  | > 100 | > 100 | > 100 µM | > 100 µM | > 100 | > 100 | > 100 µM |  |  |  |  |  | 
6 | CC(C)(O)/C=C/C(=O)[C@](C)(O)[C@H]1[C@H](O)C[C@@]2(C)[C@@H]3CC=C4[C@@H](C[C@H](O)C(=O)C4(C)C)[C@]3(C)C(=O)C[C@]12C | 0.244 µM and 0.115 µM | 11.8 | 16.5 | 0.932 | 0.453 µM and 0.775 µM | 0.598 µM and 2.81 µM |  | 19.9 | 0.939 µM and 0.362 µM | 0.0909 | 0.709 | 0.224 | 0.069 | 1.85 | 0.218
7 | N#C/C(=C\c1cccc(O)c1O)C(N)=O | > 100 µM | > 100 | > 100 | > 100 | 58.4 µM | > 100 µM | > 100 | > 100 | > 100 µM |  |  |  |  |  | 
8 | CC(=O)NC(CCCCN)C(=O)NCc1ccccc1 (configuration not stated) | > 100 µM | > 100 | > 100 | > 100 | > 100 µM | > 100 µM | > 100 | > 100 | > 100 µM |  |  |  |  |  | 
9 | Cc1c(C(=O)/C=C/C=C/c2ccccc2)[n+](=O)c2ccccc2n1[O-] | > 100 µM | > 100 | 82.3 | 66.8 | 32 µM | 84.6 µM | > 100 | > 100 | 52.7 µM |  |  |  |  |  | 
10 | CC1(c2cc3c(cc2Br)OCO3)SCCCS1 | > 100 µM | 96.2 | > 100 |  | 7.36 µM |  |  | > 100 | > 100 µM |  |  |  |  |  | 
11 | Cc1ccc(Oc2ccccc2N)cc1 | > 100 µM | > 100 | > 100 | > 100 |  | > 100 µM |  | > 100 | 86.8 µM |  |  |  |  |  | 
12 | NNc1cnn(-c2ccccc2)c(=O)c1Cl | > 100 µM | > 100 | > 100 | > 100 | > 100 µM | > 100 µM | > 100 | > 100 | > 100 µM |  |  |  |  |  | 
13 | Cc1cccc2c1c1ccc3c(c1n2C)C(=O)C=CC3=O | 44.5 µM | 2.99 | 37.7 | 14 | 2.97 µM | 25 µM | 10.4 | 32.1 | 3.64 µM |  |  |  |  |  | 
14 | CNc1ccc2ncccc2c1[N+](=O)[O-] | > 100 µM | > 100 | > 100 | > 100 |  | > 100 µM | > 100 | > 100 | > 100 µM |  |  |  |  |  | 
15 | Cc1cc(C)nc(/C(=N\NC(N)=O)C(=O)Nc2nc3ccc(C)cc3s2)c1 | > 100 µM | > 100 | > 100 | > 100 | > 100 µM | > 100 µM | > 100 | > 100 | > 100 µM |  |  |  |  |  | 
16 | CCOc1ccc(/C(C=O)=C(\Cl)c2ccc(OC)cc2)cc1 | > 100 µM | > 31.6 | > 100 | > 100 | > 100 µM | > 100 µM | > 100 | > 100 | > 100 µM |  |  |  |  |  | 
17 | C#CCNC(=O)ON1C(=O)CCC1=O | > 100 µM | > 100 | > 100 | > 100 | > 100 µM | > 100 µM |  | > 100 | > 100 µM |  |  |  |  |  | 
18 | CCc1cccc(C)c1NC(=O)CCc1nnc2s/c(=C\c3cccc4ccccc34)c(=O)n12 | > 100 µM | > 100 | > 100 | > 100 | > 100 µM | > 100 µM | > 100 | > 100 | > 100 µM |  |  |  |  |  | 
